How the values were obtained:
[1] = test system: COX-2-mRNA in MSCP 5 cells; assay: Northern Blot analysis of COX-2 mRNA in keratinocytes; type: cell-based, mouse; details: subconfluent MSCP 5 cells, 500 μM, 45 mins
Description: Influencing of the Transcription Activity of HPK II (Human Skin Keratinocytes)
The release of prostaglandins can be influenced by inhibitors at several levels. Besides inhibition of the catalytic activity of the prostaglandin synthase proteins, another possible effect is on the messenger RNA of the cyclooxygenases. […] As a negative control, the cells were incubated for 45 minutes in medium containing only the solubilizer acetone (0.25%) but no test substance for the same recorded RNA concentration.

[2] = test system: mouse MSCP 5 keratinocytes; assay: Cytotoxicity, MTT test in mouse skin keratinocytes; type: cell-based; details: concentrations showing inhibition of prostaglandin synthesis, incubation 1.5 or 20 h, confluent or subconfluent
From the text: (§1) Cytotoxicity (in Mouse or Human Skin Keratinocytes, MSCP 5 or HPK II)
(§2) The toxicity of the substances was investigated by the MTT Test (Mosmann 1983) in cell cultures. This test is based on the conversion of the yellow tetrazolium salt MTT into the violet dye formazane. The reaction takes place only in living cells through the succinate dehydrogenase located in the inner mitochondrial membranes. On account of the potential use in cosmetic or pharmaceutical products, skin cells (human HPKII or mouse MSCP 5 keratinocytes) were used as the test system. […] The effect of the substances on the keratinocytes was independent of the time (incubation time 1.5 or 20 h), the growth state (confluent or subconfluent) and the organism (mouse or human).
(§3) The substances were dissolved in the culture medium and incubated with the cells for 20 h. The MTT reduction test was then carried out with fresh medium without test components.

[3] = test system: human HPKII keratinocytes; assay: Cytotoxicity, MTT test in human skin keratinocytes; type: cell-based; details: for toxicity to the cells (MTT test): human HPKII keratinocytes, concentrations showing inhibition of prostaglandin synthesis, incubation 1.5 or 20 h, confluent or subconfluent; for influence on the vitality of skin cells (keratinocytes), FIG. 1: incubated 20 h in culture medium, then MTT reduction test, cell line not given
From the text: as §1, §2, §3

[4] = HLB value (ratio of hydrophilic to hydrophobic component); type: physicochemical
From the text: The salicyl alcohol derivatives according to the invention have valuable biological activities such as, for example, anti-inflammatory, antipyretic, antiphlogistic or analgesic effects. Thus, prostaglandin synthesis is inhibited to a greater extent with the compounds according to the invention than, for example, with compounds known from the literature, such as salicin, which is associated with the greater lipophilia of the compounds according to the invention. The better effect is dependent inter alia on efficient absorption by the cell membranes of the keratinocytes. The lipid solubility of glycosidic compounds derives from the ratio of hydrophilic component to hydrophobic component which is described by the HLB value. Salicin which has an HLB value of about 12 is more of a water-soluble molecule whereas salicin esters with HLB values of, in some cases, well below 10 are more liposoluble molecules.

[5] = test system: prostaglandin synthesis in MSCP5 cells; assay: Inhibition of prostaglandin synthesis/release in keratinocytes (14C-arachidonic acid labelling); type: cell-based, mouse; details: 10 μm, incubated 2 hours
Description: Inhibition of Prostaglandin Synthesis by Salicin Derivatives (in Mouse or Human Skin Keratinocytes MSCP 5 or HPK II)
The cells were marked for 16 hours with 0.2 μCi ^14C-arachidonic acid ml^−1 medium. The test substances were added in fresh medium with increasing concentrations and incubated for 2 hours. In the Figure, the substances have the following meanings:
In the positive control NS398 (10 μm) for MSCP5 cells, prostaglandin synthesis is reduced by 85%. The prostaglandins were identified by comparison with reference substances and quantified by radiosensitometry. The result is expressed as the average value of three measurement points: MSCP 5: 100%=201 cpm; HPK II: 100%=63 cpm.

In the case of O=C(Cc1ccc(O)cc1)OC[C@H]1O[C@@H](Oc2ccccc2CO)[C@H](O)[C@@H](O)[C@@H]1O [p-OH-phenyl acetyl salicin, 6-O-p-OH-phenylacetyl-([2-hydroxymethyl)phenyl]-β-D-glucopyranoside], the “COX-2-mRNA steady state concentration by comparison with untreated cells” value [1] was “greatly reduced”, the “toxicity to the cells (MTT test)” value [2] was “non-toxic” and the “toxicity to the cells (MTT test)” value [3] was “non-toxic”. For the same compound, the “influence on the vitality of skin cells (keratinocytes), FIG. 1” value [3] was “minimal”.
In the case of OCc1ccccc1O[C@@H]1O[C@H](CO)[C@@H](O)[C@H](O)[C@H]1O [Salicin, [2-(hydroxymethyl)phenyl]-β-D-glucopyranoside], the HLB value [4] was “about 12”.
With CS(=O)(=O)Nc1ccc([N+](=O)[O-])cc1OC1CCCCC1 [NS398] the “reduction of prostaglandin synthesis” value [5] was 85%.
With O=C(CCc1ccccc1)OC[C@H]1O[C@@H](Oc2ccccc2CO)[C@H](O)[C@@H](O)[C@@H]1O [phenylpropionyl salicin, 6-O-phenylpropionyl-[2-(hydroxymethyl)phenyl]-β-D-glucopyranoside] the “toxicity to the cells (MTT test)” value [2] was “non-toxic”, the “toxicity to the cells (MTT test)” value [3] was “non-toxic” and the “influence on the vitality of skin cells (keratinocytes), FIG. 1” value [3] was “minimal”.

— US6750332B1, “Salicyl alcohol derivatives” (Cognis Deutschland GmbH & Co. KG, priority 1999, dated 2004)
